What was measured:
[1] = target: T1, GDNF family receptor alpha-2 (Homo sapiens, UniProt O00451); assay: Inhibition of GFRalpha2 (unknown origin)
T1 sequence (O00451 whole entry): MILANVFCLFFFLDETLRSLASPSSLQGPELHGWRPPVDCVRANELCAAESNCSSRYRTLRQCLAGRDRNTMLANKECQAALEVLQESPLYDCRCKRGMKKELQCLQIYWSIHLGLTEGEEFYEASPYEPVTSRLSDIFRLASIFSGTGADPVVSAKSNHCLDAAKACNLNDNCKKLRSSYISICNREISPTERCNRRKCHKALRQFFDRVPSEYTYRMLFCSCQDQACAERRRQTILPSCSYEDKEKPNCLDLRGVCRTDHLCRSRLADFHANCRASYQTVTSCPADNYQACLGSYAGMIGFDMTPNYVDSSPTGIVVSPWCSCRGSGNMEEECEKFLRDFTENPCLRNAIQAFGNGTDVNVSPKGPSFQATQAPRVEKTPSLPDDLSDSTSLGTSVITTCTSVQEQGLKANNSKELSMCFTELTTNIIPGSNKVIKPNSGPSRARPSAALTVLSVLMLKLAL

[2] = target: T2, GDNF family receptor alpha-1 (Homo sapiens, UniProt P56159); assay: Inhibition of GFRalpha1 (unknown origin)
T2 sequence (P56159 whole entry): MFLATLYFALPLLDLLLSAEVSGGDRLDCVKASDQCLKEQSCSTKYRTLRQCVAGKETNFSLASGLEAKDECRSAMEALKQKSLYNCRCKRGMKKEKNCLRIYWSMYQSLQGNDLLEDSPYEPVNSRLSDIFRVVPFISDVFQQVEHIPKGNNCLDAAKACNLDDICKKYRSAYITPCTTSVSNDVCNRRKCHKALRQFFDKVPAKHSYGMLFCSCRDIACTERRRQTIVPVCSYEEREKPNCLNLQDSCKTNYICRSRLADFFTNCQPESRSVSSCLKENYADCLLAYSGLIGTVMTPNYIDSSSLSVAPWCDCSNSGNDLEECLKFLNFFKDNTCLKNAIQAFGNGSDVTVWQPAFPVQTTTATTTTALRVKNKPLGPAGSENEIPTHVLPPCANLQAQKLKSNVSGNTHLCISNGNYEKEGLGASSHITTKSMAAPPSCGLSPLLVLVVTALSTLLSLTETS

[3] = target: T3, Proto-oncogene tyrosine-protein kinase receptor Ret (Homo sapiens, UniProt P07949); assay: Inhibition of RET (unknown origin)
[4] = target: T3, Proto-oncogene tyrosine-protein kinase receptor Ret; assay: Inhibition of RET (unknown origin) assessed as maximal efficacy relative to control
[5] = target: T4, GDNF family receptor alpha-3 (Homo sapiens, UniProt O60609); assay: Inhibition of GFRalpha3 (unknown origin)
T4 sequence (O60609 whole entry): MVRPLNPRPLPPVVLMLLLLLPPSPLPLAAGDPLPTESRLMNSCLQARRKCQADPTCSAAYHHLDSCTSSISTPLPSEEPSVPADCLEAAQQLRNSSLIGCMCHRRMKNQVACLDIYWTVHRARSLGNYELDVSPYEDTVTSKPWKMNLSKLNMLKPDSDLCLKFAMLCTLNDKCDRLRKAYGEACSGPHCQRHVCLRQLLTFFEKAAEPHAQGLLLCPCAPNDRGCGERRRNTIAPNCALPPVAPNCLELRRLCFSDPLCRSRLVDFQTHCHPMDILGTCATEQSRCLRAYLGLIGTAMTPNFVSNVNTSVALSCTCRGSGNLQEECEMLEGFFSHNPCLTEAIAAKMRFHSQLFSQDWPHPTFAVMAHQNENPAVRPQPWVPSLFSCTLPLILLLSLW

[6] = target: T5, GDNF family receptor alpha-2 (Homo sapiens) (UniProt O00451); assay: Inhibition of GFRalpha2 (unknown origin) assessed as maximal efficacy relative to control
T5 sequence (whole entry): T1 sequence (O00451 whole entry)

[7] = target: T6, GDNF family receptor alpha-1 (Homo sapiens) (UniProt P56159); assay: Inhibition of GFRalpha1 (unknown origin) assessed as maximal efficacy relative to control
T6 sequence (whole entry): T2 sequence (P56159 whole entry)

[8] = target: T7, GDNF family receptor alpha-3 (Homo sapiens) (UniProt O60609); assay: Inhibition of GFRalpha3 (unknown origin) assessed as maximal efficacy relative to control
T7 sequence (whole entry): T4 sequence (O60609 whole entry)

T3 sequence (P07949 whole entry): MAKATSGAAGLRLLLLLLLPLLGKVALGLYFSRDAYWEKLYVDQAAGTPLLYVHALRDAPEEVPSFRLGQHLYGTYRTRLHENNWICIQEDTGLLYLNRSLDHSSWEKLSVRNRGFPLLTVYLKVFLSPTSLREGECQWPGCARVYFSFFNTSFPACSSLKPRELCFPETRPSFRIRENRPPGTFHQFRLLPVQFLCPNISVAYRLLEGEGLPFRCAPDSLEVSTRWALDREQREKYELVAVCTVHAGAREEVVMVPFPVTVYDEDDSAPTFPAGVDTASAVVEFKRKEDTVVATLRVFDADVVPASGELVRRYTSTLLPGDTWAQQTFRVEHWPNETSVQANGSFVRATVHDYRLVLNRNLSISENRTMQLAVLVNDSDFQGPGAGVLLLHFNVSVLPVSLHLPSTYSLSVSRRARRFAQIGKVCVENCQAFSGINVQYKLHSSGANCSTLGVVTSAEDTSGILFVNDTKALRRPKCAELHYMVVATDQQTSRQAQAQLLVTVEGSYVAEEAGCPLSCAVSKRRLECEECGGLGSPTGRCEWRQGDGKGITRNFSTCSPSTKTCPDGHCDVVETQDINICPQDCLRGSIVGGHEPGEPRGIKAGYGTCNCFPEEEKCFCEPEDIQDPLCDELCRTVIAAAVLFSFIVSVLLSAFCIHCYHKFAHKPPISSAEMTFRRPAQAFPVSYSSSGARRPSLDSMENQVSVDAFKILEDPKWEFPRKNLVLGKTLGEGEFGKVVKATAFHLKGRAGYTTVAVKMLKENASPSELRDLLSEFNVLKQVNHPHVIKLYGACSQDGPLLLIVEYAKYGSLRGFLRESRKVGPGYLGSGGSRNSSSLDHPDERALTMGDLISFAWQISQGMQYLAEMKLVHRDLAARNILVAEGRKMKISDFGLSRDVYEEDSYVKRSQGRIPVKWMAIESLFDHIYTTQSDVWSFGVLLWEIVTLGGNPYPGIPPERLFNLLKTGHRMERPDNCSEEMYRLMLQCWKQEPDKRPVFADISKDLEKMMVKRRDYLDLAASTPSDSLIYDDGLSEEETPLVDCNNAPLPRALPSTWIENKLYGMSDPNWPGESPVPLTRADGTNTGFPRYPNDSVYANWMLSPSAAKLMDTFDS

| SMILES | IC50 [1] [µM] | IC50 [2] [µM] | IC50 [3] [µM] | Emax [4] [%] | IC50 [5] [µM] | Emax [6] [%] | Emax [7] [%] | Emax [8] [%] |
| --- | --- | --- | --- | --- | --- | --- | --- | --- |
| CNC(=O)[C@H](NC(=O)Cc1cccc(O[C@H]2CCc3cc(-c4cnc(Nc5cncnc5)nc4)ccc32)c1)C1CCCCC1 | > 100 | > 100 | > 100 | 0 | > 100 | 0 | 0 | 0 |
| CNC(=O)[C@@H](Cc1c[nH]cn1)NC(=O)Cc1cccc(O[C@H]2CCc3cc(-c4cnc(Nc5ccccc5)nc4)ccc32)c1 | > 100 | 29.9 | > 100 | 0 | 13.4 | 0 | 97 | 100 |
| CNC(=O)[C@H](NC(=O)Cc1cccc(O[C@H]2CCc3cc(-c4cncc(Oc5ccccc5)c4)ccc32)c1)C1CCCCC1 | 18 | > 100 | > 100 | 0 | 26 | 100 | 0 | 100 |
| CNC(=O)Cc1cccc(O[C@H]2CCc3cc(-c4cnc(Nc5ccccc5)nc4)ccc32)c1 | > 100 | > 100 | > 100 | 0 | > 100 | 0 | 0 | 0 |
| COC(=O)[C@H](Cc1cnc[nH]1)NC(=O)Cc1cccc(O[C@H]2CCc3cc(-c4cncc(Oc5ccccc5)c4)ccc32)c1 | > 100 | > 100 | > 100 | 0 | 7.4 | 0 | 0 | 100 |
| CNC(=O)[C@H](NC(=O)Cc1cccc(O[C@@H]2Cc3ccc(-c4cnc(Nc5ccccc5)nc4)cc3C2)c1)C1CCCCC1 (racemic) | 0.1 | 0.25 | > 100 | 0 | 0.2 | 100 | 86 | 100 |
| O[C@H]1CCc2cc(-c3cnc(Nc4ccccc4)nc3)ccc21 | > 100 | > 100 | 16 | 92 | 8.8 | 0 | 0 | 71 |
| NC(=O)Cc1cccc(O[C@H]2CCc3cc(-c4cnc(Nc5ccccc5)nc4)ccc32)c1 | > 100 | > 100 | > 100 | 0 | > 100 | 0 | 0 | 0 |
| CNC(=O)[C@H](NC(=O)Cc1cccc(O[C@H]2CCc3cc(-c4cncnc4)ccc32)c1)C1CCCCC1 | > 100 | > 100 | 0.9 | 100 | > 100 | 0 | 0 | 0 |
| CNC(=O)[C@H](NC(=O)Cc1cccc(Oc2cnc(Nc3ccccc3)nc2)c1)C1CCCCC1 | > 100 | > 100 | > 100 | 0 | > 100 | 0 | 0 | 0 |
| NC(=O)[C@H](NC(=O)Cc1cccc(O[C@H]2CCc3cc(-c4ncc(Nc5ccccc5)cn4)ccc32)c1)C1CCCCC1 | 2.5 | 1 | 0.8 | 68 | 1.1 | 69 | 79 | 100 |
| O=C(O)Cc1cccc(O[C@H]2CCc3cc(-c4cnc(Nc5ccccc5)nc4)ccc32)c1 | > 100 | > 100 | 2.3 | 93 | 2.8 | 0 | 0 | 59 |
| CNC(=O)[C@H](NC(=O)Cc1cccc(O[C@H]2CCc3ccccc32)c1)C1CCCCC1 | 9.9 | > 100 | > 100 | 0 | 9.1 | 66 | 0 | 66 |
| CNC(=O)[C@H](NC(=O)Cc1cccc(O[C@H]2CCc3cc(-c4cnc(Nc5ccccc5)nc4)ccc32)c1)C1CCCCC1 | 1 | 2.1 | > 100 | 0 | 0.7 | 56 | 52 | 71 |
| CNC(=O)[C@H](Cc1c[nH]cn1)NC(=O)Cc1cccc(O[C@H]2CCc3cc(-c4cnc(Nc5ccccc5)nc4)ccc32)c1 | 3.7 | > 100 | 1.1 | 65 | 5.4 | 46 | 0 | 70 |
| CO[C@H]1CCc2cc(-c3cnc(Nc4ccccc4)nc3)ccc21 | > 100 | > 100 | > 100 | 0 | > 100 | 0 | 0 | 0 |

Reference: ChEMBL document CHEMBL5584267, “Discovery of the first selective, small-molecule GFRα2/3 inhibitors through DNA-encoded library technology” (Bioorg Med Chem Lett, 2024)
